SMILES strings stand for the structures. “And” between values parts separate entries of the source, which are not always exact repeats. Identical values can stand only once. Like-named read-outs stand apart in the source and are kept apart here.

This experiment has as its target SARS-CoV-2 NSP3 Mac1 (Severe acute respiratory syndrome coronavirus 2, UniProt P0DTD1). The experiment is described as follows: biochemical. Format: binding. Particulars: for NSP3 Mac1 inhibition at 50 µM (%) / inhibition at 50 µM: FDA-approved compound library primary screen, single shot; for Hill slope: confirmatory HTRF assays; for inhibition at 125 µM: read-out: Inhibition at top concentration of 125 µM (%). In general terms: Time-resolved FRET reads energy transfer from a long-lived donor to a nearby acceptor.

Setting [1] is: MIDAS compound library primary screen, 25 µM.
[2] abbreviates: BioAscent virtual screening hit compounds, 25 µM, duplicate.
The mark [3] stands for this setting: MIDAS hit compounds and analogues.
Where [4] appears, read: MIDAS hit compounds and analogues, top concentration 125 µM, 8-point 1:1 dilution, duplicate, read-out: IC50.
Where [5] appears, read: MIDAS hit compounds and analogues, top concentration 125 µM, 8-point 1:1 dilution, duplicate.

Turning to `O=C(Nc1ccc2cc[nH]c2c1)c1csc(NCC2CCCO2)n1` (centres unmarked) [ARUK4000671-001-001, O=C(Nc1ccc2cc[nH]c2c1)c1csc(n1)NCC1CCCO1], the inhibition at 25 µM under setting [1] worked out at 106%.
Still for that read-out and setting: the figure for `NC(=O)[C@@H]1CCCN1C(=O)c1cc(-n2cccc2)ccc1Cl` [ARUK4000702-001-001, NC(=O)[C@@H]1CCCN1C(=O)c1cc(ccc1Cl)-n1cccc1] is 45.8%; for `CC(=O)N1CCc2nc(N)c(C#N)c(-c3cccc(-c4ccco4)c3)c2C1` [ARUK4004310-001-001, CC(=O)N1CCc2nc(c(c(c2C1)-c1cccc(c1)-c1ccco1)C#N)N] it is 61%.
Regarding `COc1ccc(C(=O)CC(=O)c2ccc(C(C)(C)C)cc2)cc1` [Avobenzone, reference compound], the “NSP3 Mac1 inhibition at 50 µM (%)” value worked out at 62% and the inhibition at 50 µM is 61.8%.
In general, Hill slope refers to a measure of the steepness of the concentration-response curve. A word on the IC50: it is the midpoint of a concentration-inhibition curve. `C[C@H]1[C@H](NC(=O)/C(=N\OC(C)(C)C(=O)O)c2csc(N)n2)C(=O)N1S(=O)(=O)O` [Aztreonam, reference compound]: the “NSP3 Mac1 inhibition at 50 µM (%)” value was determined as 43% and the inhibition at 50 µM came to 42.8%. In addition, the Hill slope (FDA-approved hit compounds) worked out at 1.05. The IC50 (IC50) is 29.3 µM and 29 µM.
On to `COc1cc(/C=C2\Oc3cc(O)ccc3C2=O)ccc1O` [BCC0002149, COc1cc(/C=C2\Oc3cc(O)ccc3C2=O)ccc1O], for which the inhibition at 25 µM under setting [2] turned out to be 47.2%.
Still for that read-out and setting: the figure for `CN(C)S(=O)(=O)c1ccc2nc(C(=O)O)n(O)c2c1` [BCC0019152, CN(C)S(=O)(=O)c1ccc2nc(C(=O)O)n(O)c2c1] is 32.7%.
Same read-out and setting: then `O=c1cc(-c2ccc(Cl)cc2)oc2cc(OCC(O)CS(=O)(=O)c3ccc(Cl)cc3)ccc12` (centres unmarked) [BCC0030992, O=c1cc(-c2ccc(Cl)cc2)oc2cc(OCC(O)CS(=O)(=O)c3ccc(Cl)cc3)ccc12], with 31.6%.
Same read-out and setting: the figure for `CCN1C(=O)c2cccc3c(S(=O)(=O)O)ccc1c23` [BCC0032304, CCN1C(=O)c2cccc3c(S(=O)(=O)O)ccc1c23] is 36.4%; for `Cc1cccn2c(=O)c3cc(C(=O)O)n(C)c3nc12` [BCC0049478, Cc1cccn2c(=O)c3cc(C(=O)O)n(C)c3nc12] it is 30.6%.
Consider `CN1C(=O)c2ccc(N3CCCC3)cc2C1=O` [BCC0067629, CN1C(=O)c2ccc(N3CCCC3)cc2C1=O], for which, under setting [2], the inhibition at 25 µM stood at 30.5%.
On the same count and under the same terms, then `Oc1nc2ccccc2nc1-c1c[nH]c2ccccc12` [BCC0071692, Oc1nc2ccccc2nc1-c1c[nH]c2ccccc12], with 35%; and `CN(C)c1ccc(-c2ccc3ccccc3n2)cc1` [BCC0083752, CN(C)c1ccc(-c2ccc3ccccc3n2)cc1], with 46.8%; and `Cc1cc2nn(-c3ccccc3)nc2cc1N` [BCC0086077, Cc1cc2nn(-c3ccccc3)nc2cc1N], with 67.8%.
Still for that read-out and setting: then `Nc1ccc2nc3c(=O)[nH]c(=O)[nH]c3nc2c1` [BCC0091906, Nc1ccc2nc3c(=O)[nH]c(=O)[nH]c3nc2c1], with 56.2%.
The same measure, in the same setting: then `Oc1cc2ccccc2nc1-c1ccccc1` [BCC0093974, Oc1cc2ccccc2nc1-c1ccccc1], with 38.6%; and `Nc1ccc2oc(-c3cccnc3)nc2c1` [BCC0105824, Nc1ccc2oc(-c3cccnc3)nc2c1], with 30.1%.
As for `O=c1c(O)c(-c2cccs2)oc2ccccc12` [BCC0111915, O=c1c(O)c(-c2cccs2)oc2ccccc12], under setting [2], the inhibition at 25 µM stood at 62.9%.
Same read-out and setting: the figure for `COc1cc(/C=C/C(=O)c2cc3ccccc3o2)cc(Br)c1O` [BCC0117785, COc1cc(/C=C/C(=O)c2cc3ccccc3o2)cc(Br)c1O] is 39.3%; for `CC(=O)c1ccc(-c2ccc(N)cc2)o1` [BCC0119417, CC(=O)c1ccc(-c2ccc(N)cc2)o1] it is 59.3%; for `Nc1ccc2c(c1)C/C(=C/c1ccco1)C2=O` [BCC0121661, Nc1ccc2c(c1)C/C(=C/c1ccco1)C2=O] it is 56.9%.
Same read-out and setting: then `O=c1ccsn1-c1ccc(F)c(Cl)c1` [BCC0125028, O=c1ccsn1-c1ccc(F)c(Cl)c1], with 57.5%.
As for `O=C(O)CCCC[C@@H]1SC[C@@H]2NC(=O)N[C@@H]21` [Biotin, reference compound], the “NSP3 Mac1 inhibition at 50 µM (%)” value is 107% and the inhibition at 50 µM is 108%.
On to `N.N.O=C([O-])C1(C(=O)[O-])CCC1.[Pt+2]` [Carboplatin, reference compound], for which the “NSP3 Mac1 inhibition at 50 µM (%)” value is given as 97.3%. Where the note is “FDA-approved hit compounds, top concentration 125 µM”, the “outcome of dose-response titration” value is listed as “strong assay interference”.
As for `CO/N=C(\C(=O)N[C@@H]1C(=O)N2C(C(=O)[O-])=C(C[N+]3(C)CCCC3)CS[C@H]12)c1csc(N)n1.Cl` [Cefepime hydrochloride, reference compound], the “NSP3 Mac1 inhibition at 50 µM (%)” value is on record as 42.1%.
Consider `CC(C)(O/N=C(\C(=O)N[C@@H]1C(=O)N2C(C(=O)[O-])=C(C[n+]3ccccc3)CS[C@H]12)c1csc(N)n1)C(=O)O` [Ceftazidime, reference compound], for which the “NSP3 Mac1 inhibition at 50 µM (%)” value stood at 108% and the inhibition at 50 µM was 108%. Also, the Hill slope (FDA-approved hit compounds) is recorded as 1.38. Besides, the IC50 (IC50) was 37.1 µM and 37 µM.
Turning to `Nc1nc(/C(=C/CC(=O)O)C(=O)N[C@@H]2C(=O)N3C(C(=O)O)=CCS[C@H]23)cs1` [Ceftibuten, reference compound], the inhibition at 50 µM was 71.6%.
As to `CC(=O)OCC1=C(C(=O)O)N2C(=O)[C@@H](NC(=O)CCC[C@@H](N)C(=O)O)[C@H]2SC1` [Cephalosporin C sodium, reference compound], the inhibition at 50 µM was determined as 89.8%.
Regarding `COCCNC(=O)c1ccc(-c2ccnc3c2ccn3C)o1` [Compound 1, COCCNC(=O)c1ccc(o1)-c1ccnc2n(ccc12)C], the inhibition at 25 µM under setting [1] was found to be 73%. Also, the “NSP3 Mac1 inhibition at 25 µM (%)” value (MIDAS compound library primary screen, 25 µM, listed as ARUK4007189-001-001, 25 µM) is on record as 73.1%.
As for `O=c1c2ccccc2[se]n1-c1ccccc1` [Ebselen, reference compound], the “NSP3 Mac1 inhibition at 50 µM (%)” value was 107% and the inhibition at 50 µM amounted to 108%. The compound also showed a Hill slope (FDA-approved hit compounds) of 4.94.
Turning to `CCOc1ccc2nc3cc(N)ccc3c(N)c2c1` [Ethacridine lactate, reference compound], the inhibition at 50 µM is 49.3%.
As to `CCCCCCCC/C=C\CCCCCCCC(=O)O.NCCO` [Ethanolamine oleate, reference compound], the “NSP3 Mac1 inhibition at 50 µM (%)” value worked out at 56.1%.
On to `Oc1c(Cl)cc(Cl)c(Cl)c1Cc1c(O)c(Cl)cc(Cl)c1Cl` [Hexachlorophene, reference compound], for which the inhibition at 50 µM came to 85.5%.
Consider `Nc1c(C(=O)NC2CC2)sc2nc(-c3ccccn3)ccc12` [IAL-MD0017, O=C(C1=C(N)C2=CC=C(C3=NC=CC=C3)N=C2S1)NC4CC4], for which the inhibition at 25 µM under setting [1] stood at 58.7%. Also, the inhibition at 125 µM under setting [3] came out at 79.6%. Also, the half-inhibitory concentration (IC50) under setting [4] worked out at 12.6 µM.
Consider `CC(C)n1ncc2c(C(=O)NCc3cccs3)cc(-c3ccccc3)nc21` [IAL-MD0018, CC(C)N1N=CC=2C(=CC(=NC12)C=3C=CC=CC3)C(=O)NCC4=CC=CS4], for which, under setting [3], the “Inhibition at top concentration of 125 µM (%)” value was “Not measurable”. Besides, under setting [5], the “IC50 in µM” value is “Not measurable”.
For the compound `CONC(=O)c1cc(-c2ccc(OC)cc2)nc2ccccc12` [IAL-MD0024, CONC(=O)C=1C=C(N=C2C=CC=CC12)C=3C=CC(OC)=CC3], under setting [3], the inhibition at 125 µM is 60.3%. For the same compound, the IC50 under setting [4] is 68 µM.
Regarding `CCn1ncc2c(C(=O)Nc3cccc(NC(C)=O)c3)cc(-c3ccccc3)nc21` [IAL-MD0025, CCN1N=CC=2C(=CC(=NC12)C=3C=CC=CC3)C(=O)NC=4C=CC=C(NC(=O)C)C4], the “Inhibition at top concentration of 125 µM (%)” value under setting [3] is reported as “Not measurable”. The “IC50 in µM” value under setting [5] is “Not measurable”.
In the case of `CCn1ncc2c(C(=O)Nc3ncc(C)s3)cc(-c3cccs3)nc21` [IAL-MD0026, CCN1N=CC=2C(=CC(=NC12)C3=CC=CS3)C(=O)NC4=NC=C(C)S4], the inhibition at 125 µM under setting [3] is 11.1%. For the same compound, under setting [5], the “IC50 in µM” value is given as “Not measurable”.
Consider `COc1ccc(-c2cc(C(=O)O)c3c(C)cc(C)cc3n2)cc1` [IAL-MD0029, COC=1C=CC(=CC1)C=2C=C(C(=O)O)C=3C(C)=CC(C)=CC3N2], for which the inhibition at 125 µM under setting [3] was 61.2%. The IC50 under setting [4] is 76 µM and 75.9 µM.
For the compound `COc1ccc(-c2cc(C(=O)O)c3ccc(OC)cc3n2)cc1` [IAL-MD0030, COC=1C=CC(=CC1)C=2C=C(C(=O)O)C=3C=CC(OC)=CC3N2], the inhibition at 125 µM under setting [3] amounted to 44.7%. Moreover, the “IC50 in µM” value under setting [5] was “Not measurable”.
As for `COc1ccc(-c2cc(C(=O)O)c3cc(NC(C)=O)ccc3n2)cc1` [IAL-MD0031, COC=1C=CC(=CC1)C=2C=C(C(=O)O)C=3C=C(NC(=O)C)C=CC3N2], the inhibition at 25 µM under setting [1] came out at 48%. The inhibition at 125 µM under setting [3] was 81.3%. Under setting [4], the IC50 is 19 µM and 19.3 µM.
On to `CC(=O)Nc1cccc(NC(=O)c2cc(-c3cccs3)nc3c2cnn3C(C)C)c1` [IAL-MD0032, CC(C)N1N=CC=2C(=CC(=NC12)C3=CC=CS3)C(=O)NC=4C=CC=C(NC(=O)C)C4], for which the inhibition at 125 µM under setting [3] came out at 20.3%. Moreover, the “IC50 in µM” value under setting [5] is “Not measurable”.
In the case of `COc1cccc(NC(=O)c2cc(-c3cccs3)nc3c2cnn3C(C)C)c1` [IAL-MD0033, COC=1C=CC=C(NC(=O)C=2C=C(N=C3N(N=CC23)C(C)C)C4=CC=CS4)C1], the inhibition at 125 µM under setting [3] was 12.1%. The “IC50 in µM” value under setting [5] is reported as “Not measurable”.
For `COc1ccc(-c2cc(C(=O)Nc3cccc(OCC(N)=O)c3)c3ccccc3n2)cc1` [IAL-MD0034, COC=1C=CC(=CC1)C=2C=C(C(=O)NC=3C=CC=C(OCC(=O)N)C3)C=4C=CC=CC4N2], in that order: 8.9% and “Not measurable”.
For `CCC(C)NC(=O)c1cc(-c2ccc(OC)cc2)nc2ccccc12` (centres unmarked) [IAL-MD0035, CCC(C)NC(=O)C=1C=C(N=C2C=CC=CC12)C=3C=CC(OC)=CC3], in that order: 6.8% and “Not measurable”.

Source of the values: paper PMC9965906, “Discovery and Development Strategies for SARS-CoV-2 NSP3 Macrodomain Inhibitors” (Pathogens, 2023).
